Assay results from US20210317140A1, “Heterocyclic Compounds and Methods of Use” (MEDIVATION TECHNOLOGIES, INC, priority 2013, published 2021).

Legend:
Format in all cases: biochemical
BTK = target: T1, BTK (Homo sapiens, UniProt Q06187); assay: BTK kinase assay (HotSpot, 33P ATP); details: for BTK @ 0.1 μM (% Inh): 0.1 μM compound; for BTK @ 0.1 μM (% Inh) / BTK @ 1 μM (% Inh) / BTK @ 0.01 μM (% Inh): 10 μM ATP; for BTK @ 1 μM (% Inh): 1 μM compound; for IC50: 10 dose IC50, 10 μM ATP; for BTK @ 0.01 μM (% Inh): 0.01 μM compound
T1 construct: purchased Reaction Biology Corporation
T1 sequence (Q06187 whole entry): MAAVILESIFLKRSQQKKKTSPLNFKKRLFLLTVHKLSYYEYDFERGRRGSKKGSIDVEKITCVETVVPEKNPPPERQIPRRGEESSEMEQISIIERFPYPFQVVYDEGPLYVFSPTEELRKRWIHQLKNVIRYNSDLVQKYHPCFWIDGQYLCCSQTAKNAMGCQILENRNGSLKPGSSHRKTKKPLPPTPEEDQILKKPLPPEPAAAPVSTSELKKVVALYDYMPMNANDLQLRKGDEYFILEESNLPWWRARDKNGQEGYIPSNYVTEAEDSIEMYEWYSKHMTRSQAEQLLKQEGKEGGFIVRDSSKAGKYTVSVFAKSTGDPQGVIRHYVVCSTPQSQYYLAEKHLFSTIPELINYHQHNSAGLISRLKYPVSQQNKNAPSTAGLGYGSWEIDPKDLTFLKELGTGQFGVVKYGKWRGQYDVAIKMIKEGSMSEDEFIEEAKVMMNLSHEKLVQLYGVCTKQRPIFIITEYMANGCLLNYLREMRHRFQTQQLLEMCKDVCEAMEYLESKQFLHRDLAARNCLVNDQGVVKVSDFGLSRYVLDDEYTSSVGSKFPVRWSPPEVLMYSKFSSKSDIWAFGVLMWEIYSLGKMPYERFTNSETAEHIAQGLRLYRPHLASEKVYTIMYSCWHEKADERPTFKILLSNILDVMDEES
Outline: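 In 20 mM Hepes (pH 7.5) with 10 mM MgCl2, 1 mM EGTA, 0.1 mM Na3VO4, 2 mM DTT, 0.02% Brij35, 0.02 mg/mL BSA and 1% DMSO, kinase and substrate were exposed to ten compound doses for 15–20 min.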

PI3Kδ = target: T2, PI3Kδ (Homo sapiens, UniProt O00329); assay: PI3Kδ kinase assay (HTRF, PIP3 detection); details: for PI3Kδ @ 0.1 μM (% Inh): 0.1 μM compound; for PI3Kδ @ 0.1 μM (% Inh) / PI3Kδ @ 1 μM (% Inh) / PI3Kδ @ 0.01 μM (% Inh): 10 μM ATP; for PI3Kδ @ 1 μM (% Inh): 1 μM compound; for IC50: 10 dose IC50, 10 μM ATP; for PI3Kδ @ 0.01 μM (% Inh): 0.01 μM compound
T2 construct: purchased Reaction Biology Corporation
T2 sequence (O00329 whole entry): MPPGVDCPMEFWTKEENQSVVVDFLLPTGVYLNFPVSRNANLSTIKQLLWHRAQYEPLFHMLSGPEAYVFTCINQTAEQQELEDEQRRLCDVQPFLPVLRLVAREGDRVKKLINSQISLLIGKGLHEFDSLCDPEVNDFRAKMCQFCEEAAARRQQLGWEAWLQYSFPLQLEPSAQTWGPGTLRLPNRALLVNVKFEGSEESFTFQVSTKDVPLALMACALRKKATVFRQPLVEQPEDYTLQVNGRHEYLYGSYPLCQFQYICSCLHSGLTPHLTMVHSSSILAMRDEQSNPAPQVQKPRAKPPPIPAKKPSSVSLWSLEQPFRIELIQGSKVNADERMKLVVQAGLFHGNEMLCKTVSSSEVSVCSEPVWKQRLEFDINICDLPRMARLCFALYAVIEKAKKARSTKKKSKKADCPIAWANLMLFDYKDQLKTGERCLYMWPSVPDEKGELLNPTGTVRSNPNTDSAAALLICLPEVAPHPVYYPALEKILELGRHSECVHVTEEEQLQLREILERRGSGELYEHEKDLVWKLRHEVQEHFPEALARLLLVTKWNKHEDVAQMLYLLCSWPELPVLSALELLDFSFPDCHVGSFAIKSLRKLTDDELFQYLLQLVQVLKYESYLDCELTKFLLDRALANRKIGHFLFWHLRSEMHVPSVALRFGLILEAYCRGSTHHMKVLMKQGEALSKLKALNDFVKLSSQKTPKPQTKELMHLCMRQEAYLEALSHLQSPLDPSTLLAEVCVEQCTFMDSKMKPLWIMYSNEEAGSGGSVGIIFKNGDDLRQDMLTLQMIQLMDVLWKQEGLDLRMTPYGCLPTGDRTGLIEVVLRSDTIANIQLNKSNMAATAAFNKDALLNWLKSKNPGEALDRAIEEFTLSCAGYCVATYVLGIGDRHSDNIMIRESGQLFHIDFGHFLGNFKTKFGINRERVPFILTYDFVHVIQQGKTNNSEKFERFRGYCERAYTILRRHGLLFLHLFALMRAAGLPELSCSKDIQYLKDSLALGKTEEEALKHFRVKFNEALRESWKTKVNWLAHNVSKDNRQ
T2 sequence (P27986 whole entry partner): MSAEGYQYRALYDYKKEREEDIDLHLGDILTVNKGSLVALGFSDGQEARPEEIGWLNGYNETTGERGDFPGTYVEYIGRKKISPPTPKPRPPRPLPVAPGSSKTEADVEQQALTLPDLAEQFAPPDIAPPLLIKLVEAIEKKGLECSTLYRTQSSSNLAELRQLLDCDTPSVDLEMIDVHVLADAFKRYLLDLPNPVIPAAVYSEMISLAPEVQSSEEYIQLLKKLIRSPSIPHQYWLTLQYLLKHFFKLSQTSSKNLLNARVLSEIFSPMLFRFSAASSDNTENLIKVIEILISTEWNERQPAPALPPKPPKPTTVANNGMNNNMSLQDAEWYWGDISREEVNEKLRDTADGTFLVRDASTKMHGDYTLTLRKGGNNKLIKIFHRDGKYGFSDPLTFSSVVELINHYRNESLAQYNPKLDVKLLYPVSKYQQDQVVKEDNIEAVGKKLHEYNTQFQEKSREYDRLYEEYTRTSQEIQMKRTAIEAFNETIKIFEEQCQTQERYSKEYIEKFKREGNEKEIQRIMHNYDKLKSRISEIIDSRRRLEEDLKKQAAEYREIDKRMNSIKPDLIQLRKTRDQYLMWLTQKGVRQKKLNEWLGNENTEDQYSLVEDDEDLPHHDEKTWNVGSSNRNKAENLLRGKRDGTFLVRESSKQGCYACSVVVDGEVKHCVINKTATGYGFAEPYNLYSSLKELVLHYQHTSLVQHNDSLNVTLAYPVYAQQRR
Outline: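 10-dose HTRF assay; kinase preincubated with compound 10 min at RT, then reacted with 10 μM PIP2 and 10 μM ATP for 30 min at 30 °C in HEPES pH 7.0 buffer. PIP3 product displaces biotin-PIP3 from the Eu/APC complex; signal converted to PIP3 via standard curve, IC50 by nonlinear regression.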

PI3Kγ = target: T3, PI3Kγ (Homo sapiens, UniProt P48736); assay: PI3Kγ isoform profiling (PI3Kδ protocol); details: for PI3Kγ @ 0.3 μM (% Inh): 0.3 μM compound; for IC50: 10 dose IC50
T3 construct: purchased Reaction Biology Corporation
T3 sequence (P48736 whole entry, canonical isoform): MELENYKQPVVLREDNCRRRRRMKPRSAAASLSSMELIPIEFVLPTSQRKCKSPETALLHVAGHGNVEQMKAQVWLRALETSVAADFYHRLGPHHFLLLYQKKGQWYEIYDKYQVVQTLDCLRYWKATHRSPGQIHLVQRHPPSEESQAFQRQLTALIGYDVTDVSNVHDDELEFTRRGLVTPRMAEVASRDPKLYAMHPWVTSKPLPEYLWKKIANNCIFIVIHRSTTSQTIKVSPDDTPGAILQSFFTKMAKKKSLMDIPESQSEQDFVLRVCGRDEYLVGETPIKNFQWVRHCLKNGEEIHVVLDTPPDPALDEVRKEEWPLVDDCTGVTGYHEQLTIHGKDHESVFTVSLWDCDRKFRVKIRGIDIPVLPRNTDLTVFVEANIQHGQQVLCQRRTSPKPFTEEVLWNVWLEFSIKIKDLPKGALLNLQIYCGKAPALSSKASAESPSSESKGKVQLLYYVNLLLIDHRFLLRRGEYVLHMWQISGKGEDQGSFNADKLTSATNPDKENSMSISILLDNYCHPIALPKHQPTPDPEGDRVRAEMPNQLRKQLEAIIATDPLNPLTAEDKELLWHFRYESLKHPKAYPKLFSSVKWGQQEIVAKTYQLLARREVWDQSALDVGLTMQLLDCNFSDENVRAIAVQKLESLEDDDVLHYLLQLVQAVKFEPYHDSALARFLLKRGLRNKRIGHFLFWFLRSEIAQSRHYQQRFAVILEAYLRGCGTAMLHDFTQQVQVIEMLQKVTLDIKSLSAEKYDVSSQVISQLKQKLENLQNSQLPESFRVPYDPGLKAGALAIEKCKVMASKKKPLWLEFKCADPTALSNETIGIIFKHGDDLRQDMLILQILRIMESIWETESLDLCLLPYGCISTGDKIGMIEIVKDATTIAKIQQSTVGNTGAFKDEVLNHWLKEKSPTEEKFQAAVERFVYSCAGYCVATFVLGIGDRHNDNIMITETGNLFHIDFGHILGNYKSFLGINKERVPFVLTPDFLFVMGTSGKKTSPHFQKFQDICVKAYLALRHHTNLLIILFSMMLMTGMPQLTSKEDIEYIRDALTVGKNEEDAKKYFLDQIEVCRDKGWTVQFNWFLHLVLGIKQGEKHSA
Source text: PI3Kδ assay: The PIP3 product is detected by displacement of biotin-PIP3 from an energy transfer complex consisting of Europium labeled anti-GST monoclonal antibody, a GST-tagged pleckstrin homology (PH) domain, biotinylated PIP3 and Streptavidin-Allophycocyanin (APC). Excitation of Europium in the complex results in an energy transfer to the APC and a fluorescent emission at 665 nm. The PIP3 product formed by PI 3-Kinase(h) activity displaces biotin-PIP3 from the complex resulting in a loss of energy transfer and thus a decrease in signal. This is a 3-step reaction: First, the kinase reaction with PIP2 substrate is carried out in the presence of ATP (10 μM), and the reaction is quenched with stop Solution, and then finally detect by adding Detection Mixture followed by incubation (10 min). Reaction procedure: 1) Prepare substrate in freshly prepared Reaction Buffer. 2) Deliver kinase into the substrate solution and gently mix. 3) Deliver compounds in 100% DMSO (1 μM) into the kinase reaction mixture by Acoustic technology (Echo550; nanoliter range), incubate for 10 min at RT. 4) Deliver ATP into the reaction mixture to initiate the reaction. 5) Incubate for 30 min at 30° C. 6) Quench the reaction with Stop Solution. 7) Add Detection Mixture, and incubate for overnight. 8) Measure HTRF: Ex=320 nm, ratio of Em=615 nm and Em=665 nm. The emission ratio is converted into μM PIP3 production based on PIP3 standard curves. The nonlinear regression to obtain the standard curve and IC50 values are performed using Graphpad Prism software. Assay Buffer: HEPES 50 mM (pH7.0), NaN3 0.02%, BSA 0.01%, Orthovanadate 0.1 mM, 1% DMSO. Detection buffer: HEPES 10 mM (pH7.0), BSA 0.02%, KF 0.16 M, EDTA 4 mM. Substrate: 10 μM PIP2 substrate (PI(4,5)P2).
Compounds of the invention were profiled in a 10 dose IC50 panel against PI3Kα, PI3Kβ, and PI3Kγ kinases, provided by Reaction Biology Corporation, applied to the PI3Kδ protocol provided in Example B1.

ITK = target: T4, ITK (Homo sapiens, UniProt Q08881); assay: ITK kinase profiling (BTK protocol); details: for ITK @ 0.3 μM (% Inh): 0.3 μM compound; for IC50: 10 dose IC50
T4 construct: purchased Reaction Biology Corporation
T4 sequence (Q08881 1-620): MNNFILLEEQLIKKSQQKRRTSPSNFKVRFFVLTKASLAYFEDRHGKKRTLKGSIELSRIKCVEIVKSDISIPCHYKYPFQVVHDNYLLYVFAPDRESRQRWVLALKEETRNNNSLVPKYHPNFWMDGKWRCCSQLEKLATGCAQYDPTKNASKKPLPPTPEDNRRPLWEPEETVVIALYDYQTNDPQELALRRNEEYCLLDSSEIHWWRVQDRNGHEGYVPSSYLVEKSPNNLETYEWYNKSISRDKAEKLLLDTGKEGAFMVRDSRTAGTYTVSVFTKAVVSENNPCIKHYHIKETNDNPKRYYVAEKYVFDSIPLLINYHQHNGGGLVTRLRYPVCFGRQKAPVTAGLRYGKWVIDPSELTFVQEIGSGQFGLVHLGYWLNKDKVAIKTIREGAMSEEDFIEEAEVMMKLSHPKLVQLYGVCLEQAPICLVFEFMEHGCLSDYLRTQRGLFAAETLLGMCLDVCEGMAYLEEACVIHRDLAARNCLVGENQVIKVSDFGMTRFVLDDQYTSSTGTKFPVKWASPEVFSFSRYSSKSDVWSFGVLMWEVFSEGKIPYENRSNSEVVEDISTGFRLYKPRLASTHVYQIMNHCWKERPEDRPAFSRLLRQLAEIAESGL
Procedure: BTK assay: In vitro profiling protein kinases was performed using the “HotSpot” assay platform. Briefly, specific kinase/substrate pairs along with required cofactors were prepared in reaction buffer. Compounds were prepared as 10 mM stock solutions in DMSO. Compounds were delivered into the reaction, followed 15-20 minutes later by addition of a mixture of ATP (Sigma, St. Louis Mo.) and ^33P ATP (Perkin Elmer, Waltham Mass.) to a final concentration of 10 μM. […] IC50 values and curve fits were obtained using Prism (GraphPad Software). Buffer Conditions: 20 mM Hepes (pH 7.5), 10 mM MgCl2, 1 mM EGTA, 0.02% Brij35, 0.02 mg/mL BSA, 0.1 mM Na3VO4, 2 mM DTT, 1% DMSO.

Structure (SMILES) | BTK @ 0.1 μM (% Inh) (BTK) | BTK @ 1 μM (% Inh) (BTK) | IC50 (BTK) | PI3Kδ @ 0.1 μM (% Inh) (PI3Kδ) | PI3Kδ @ 1 μM (% Inh) (PI3Kδ) | IC50 (PI3Kδ) | PI3Kγ @ 0.3 μM (% Inh) (PI3Kγ) | ITK @ 0.3 μM (% Inh) (ITK) | BTK @ 0.01 μM (% Inh) (BTK) | PI3Kδ @ 0.01 μM (% Inh) (PI3Kδ) | IC50 (PI3Kγ) | IC50 (ITK)
Nc1ncnc2c1c(-c1cc(O)c(F)c(F)c1)nn2C1Cc2ccccc2C1 [Compound No. 81, 5-[4-amino-1-(2,3-dihydro-1H-inden-2-yl)-1H-pyrazolo[3,4-d]pyrimidin-3-yl]-2,3-difluorophenol] | 73.83 % Inh | 94.81 % Inh | 26.9 nM | 87.14 % Inh | 91.62 % Inh | 3.5 nM | 68.03 % Inh | 2.1 % Inh |  |  |  | 
Nc1ncnc2c1c(-c1cc(F)c3c(c1)NCCO3)nn2C1Cc2ccccc2C1 [Compound No. 84, 1-(2,3-dihydro-1H-inden-2-yl)-3-(8-fluoro-3,4-dihydro-2H-1,4-benzoxazin-6-yl)-1H-pyrazolo[3,4-d]pyrimidin-4-amine] | 51.83 % Inh | 90.69 % Inh | 104 nM | 53.06 % Inh | 88.36 % Inh | 34.8 nM | 55.61 % Inh | −2.3 % Inh |  |  |  | 
Nc1ncnc2c1c(-c1ccc(Cl)c(O)c1)cn2C1Cc2ccccc2C1 [Compound No. 93, 5-[4-amino-7-(2,3-dihydro-1H-inden-2-yl)-7H-pyrrolo[2,3-d]pyrimidin-5-yl]-2-chlorophenol] | 96.32 % Inh |  | 0.8 nM | 59.57 % Inh |  | 21.2 nM | 72.89 % Inh | 108.85 % Inh | 77.86 % Inh | 24.46 % Inh |  | 
Nc1ncnc2c1c(-c1ccc(Cl)c(O)c1F)nn2C1Cc2ccccc2C1 [Compound No. 100, 3-[4-amino-1-(2,3-dihydro-1H-inden-2-yl)-1H-pyrazolo[3,4-d]pyrimidin-3-yl]-6-chloro-2-fluorophenol] | 52.22 % Inh |  | 78 nM | 71.71 % Inh |  | 44.7 nM | 57.52 % Inh | 112.3 % Inh | 17.5 % Inh | 29.01 % Inh |  | 
Nc1ncnc2c1c(-c1cc(O)c(F)c(F)c1)cn2C1Cc2ccccc2C1 [Compound No. 101, 5-[4-amino-7-(2,3-dihydro-1H-inden-2-yl)-7H-pyrrolo[2,3-d]pyrimidin-5-yl]-2,3-difluorophenol] | 94.7 % Inh |  | 2.47 nM | 62.53 % Inh |  | 62.1 nM | 57.6 % Inh | −2.77 % Inh | 78.34 % Inh | 26.61 % Inh |  | 
Nc1ncnc2c1c(-c1cc(O)c(F)c(C(F)(F)F)c1)nn2C1Cc2ccccc2C1 [Compound No. 102, 5-[4-amino-1-(2,3-dihydro-1H-inden-2-yl)-1H-pyrazolo[3,4-d]pyrimidin-3-yl]-2-fluoro-3-(trifluoromethyl)phenol] | 0.67 % Inh | 9.91 % Inh | > 1000 nM | 93.99 % Inh | 100.0 % Inh | 2.5 nM | 57.81 % Inh | −5.59 % Inh |  |  |  | 
Nc1ncnc2c1c(-c1cc(O)c(Cl)c(Cl)c1)cn2C1Cc2ccccc2C1 [Compound No. 107, 5-[4-amino-7-(2,3-dihydro-1H-inden-2-yl)-7H-pyrrolo[2,3-d]pyrimidin-5-yl]-2,3-dichlorophenol] |  |  | 8.7 nM |  |  | 12.9 nM | 45.49 % Inh | −5.41 % Inh |  |  |  | 
Nc1ncnc2c1c(-c1cc(O)cc(F)c1)nn2C1Cc2ccccc2C1 [compound 3, 3-(4-amino-1-(2,3-dihydro-1H-inden-2-yl)-1H-pyrazolo[3,4-d]pyrimidin-3-yl)-5-fluorophenol] |  |  | 67.3 nM |  |  | 7.9 nM |  |  |  |  | 53.5 nM | 46900 nM
Nc1ncnc2c1c(-c1cc(O)cc(F)c1)nn2C1CCc2ccccc2C1 (centres unmarked) [compound 6, 3-(4-amino-1-(1,2,3,4-tetrahydronaphthalen-2-yl)-1H-pyrazolo[3,4-d]pyrimidin-3-yl)-5-fluorophenol] |  |  | 86.4 nM |  |  | 8.6 nM |  |  |  |  | 122 nM | 16400 nM
C=CC(=O)N1CC(n2nc(-c3cc(O)cc(F)c3)c3c(N)ncnc32)Cc2cc(C)ccc21 (centres unmarked) [compound 31, 1-(3-(4-amino-3-(3-fluoro-5-hydroxyphenyl)-1H-pyrazolo[3,4-d]pyrimidin-1-yl)-6-methyl-3,4-dihydroquinolin-1(2H)-yl)prop-2-en-1-one] | 68.24 % Inh |  | 17.4 nM | 44.38 % Inh |  | 33.6 nM | 0.74 % Inh | 17.1 % Inh |  |  | 6460 nM | > 100000 nM
Nc1ncnc2c1c(-c1cc(O)cc(F)c1)nn2C1Cc2ccc(F)cc2C1 (centres unmarked) [compound 57, 3-[4-amino-1-(5-fluoro-2,3-dihydro-1H-inden-2-yl)-1H-pyrazolo[3,4-d]pyrimidin-3-yl]-5-fluorophenol] | 63.18 % Inh | 93.26 % Inh | 134 nM | 96.89 % Inh | 100.0 % Inh | 8 nM | 30.85 % Inh | 5.31 % Inh |  |  |  | 
Nc1ncnc2c1c(-c1cc(O)c(F)c(Cl)c1)cn2C1Cc2ccccc2C1 [compound 110, 5-[4-amino-7-(2,3-dihydro-1H-inden-2-yl)-7H-pyrrolo[2,3-d]pyrimidin-5-yl]-3-chloro-2-fluorophenol] | 91.79 % Inh |  | 2.5 nM | 76.2 % Inh |  | 11.9 nM | 47.05 % Inh | −3.49 % Inh | 55.15 % Inh | 40.85 % Inh |  | 
N#Cc1cc(-c2cn(C3Cc4ccccc4C3)c3ncnc(N)c23)cc(O)c1F [compound 115, 5-[4-amino-7-(2,3-dihydro-1H-inden-2-yl)-7H-pyrrolo[2,3-d]pyrimidin-5-yl]-2-fluoro-3-hydroxybenzonitrile] | 50.43 % Inh |  | 80.1 nM | 93.12 % Inh |  | 1.9 nM | 59.21 % Inh | −9.43 % Inh | 12.09 % Inh | 82.64 % Inh |  | 
